Assay results reported in ChEMBL document CHEMBL1201861, “Genomics of Drug Sensitity in Cancer screening data, Wellcome Trust Sanger Institute”.

How the values were obtained:
Assay in all cases: cells
SJRH30 = assay type: functional, cell-based; conditions: Homo sapiens
Description: SANGER: Inhibition of human SJRH30 cell growth in a cell viability assay.

BT-20 = assay type: functional, cell-based; conditions: Homo sapiens
Description: SANGER: Inhibition of human BT-20 cell growth in a cell viability assay.

HCC1569 = assay type: functional, cell-based; conditions: Homo sapiens
Description: SANGER: Inhibition of human HCC1569 cell growth in a cell viability assay.

HuO9 = assay type: functional, cell-based; conditions: Homo sapiens
Description: SANGER: Inhibition of human HuO9 cell growth in a cell viability assay.

KYSE-70 cell line = assay type: functional, cell-based; conditions: Homo sapiens
Description: SANGER: Inhibition of human KYSE-70 cell growth in a cell viability assay.

CHP-212 = assay type: functional, cell-based; conditions: Homo sapiens
Description: SANGER: Inhibition of human CHP-212 cell growth in a cell viability assay.

SAS = assay type: functional, cell-based; conditions: Homo sapiens
Description: SANGER: Inhibition of human SAS cell growth in a cell viability assay.

MDA-MB-361 = assay type: functional, cell-based; conditions: Homo sapiens
C-33-A = assay type: functional, cell-based; conditions: Homo sapiens
Description: SANGER: Inhibition of human C-33-A cell growth in a cell viability assay.

DK-MG = assay type: functional, cell-based; conditions: Homo sapiens
Description: SANGER: Inhibition of human DK-MG cell growth in a cell viability assay.

P12-Ichikawa = assay type: functional, cell-based; conditions: Homo sapiens
RPMI-7951 = assay type: functional, cell-based; conditions: Homo sapiens
Description: SANGER: Inhibition of human RPMI-7951 cell growth in a cell viability assay.

PANC-08-13 = assay type: functional, cell-based; conditions: Homo sapiens
Description: SANGER: Inhibition of human PANC-08-13 cell growth in a cell viability assay.

NB14 = assay type: functional, cell-based, Homo sapiens; conditions: Homo sapiens, NB14
Description: SANGER: Inhibition of human NB14 cell growth in a cell viability assay.

YKG-1 = assay type: functional, cell-based; conditions: Homo sapiens
Description: SANGER: Inhibition of human YKG-1 cell growth in a cell viability assay.

PA-1 = assay type: functional, cell-based; conditions: Homo sapiens
Description: SANGER: Inhibition of human PA-1 cell growth in a cell viability assay.

SCC-9 = assay type: functional, cell-based; conditions: Homo sapiens
Description: SANGER: Inhibition of human SCC-9 cell growth in a cell viability assay.

FaDu = assay type: functional, cell-based; conditions: Homo sapiens
Description: SANGER: Inhibition of human FADU cell growth in a cell viability assay.

CHL-1 = assay type: functional, cell-based; conditions: Homo sapiens
Description: SANGER: Inhibition of human CHL-1 cell growth in a cell viability assay.

KYSE-520 cell line = assay type: functional, cell-based; conditions: Homo sapiens
Description: SANGER: Inhibition of human KYSE-520 cell growth in a cell viability assay.

SAOS-2 = assay type: functional, cell-based; conditions: Homo sapiens
Description: SANGER: Inhibition of human Saos-2 cell growth in a cell viability assay.

D-336MG = assay type: functional, cell-based, Homo sapiens; conditions: Homo sapiens, D-336MG
Description: SANGER: Inhibition of human D-336MG cell growth in a cell viability assay.

Huh-7 = assay type: functional, cell-based; conditions: Homo sapiens
Description: SANGER: Inhibition of human HuH-7 cell growth in a cell viability assay.

GAMG = assay type: functional, cell-based; conditions: Homo sapiens
Description: SANGER: Inhibition of human GAMG cell growth in a cell viability assay.

HEC-1 = assay type: functional, cell-based; conditions: Homo sapiens
Description: SANGER: Inhibition of human HEC-1 cell growth in a cell viability assay.

NCI-H630 = assay type: functional, cell-based; conditions: Homo sapiens
Description: SANGER: Inhibition of human NCI-H630 cell growth in a cell viability assay.

CAKI-1 = assay type: functional, cell-based; conditions: Homo sapiens
Description: SANGER: Inhibition of human CAKI-1 cell growth in a cell viability assay.

NCI-H1792 = assay type: functional, cell-based; conditions: Homo sapiens
Description: SANGER: Inhibition of human NCI-H1792 cell growth in a cell viability assay.

MDA-MB-231 = assay type: functional, cell-based; conditions: Homo sapiens
Description: SANGER: Inhibition of human MDA-MB-231 cell growth in a cell viability assay.

BFTC-909 = assay type: functional, cell-based; conditions: Homo sapiens
Description: SANGER: Inhibition of human BFTC-909 cell growth in a cell viability assay.

HCC38 = assay type: functional, cell-based; conditions: Homo sapiens
Description: SANGER: Inhibition of human HCC38 cell growth in a cell viability assay.

CAL-120 = assay type: functional, cell-based; conditions: Homo sapiens
Description: SANGER: Inhibition of human CAL-120 cell growth in a cell viability assay.

NCI-H1573 = assay type: functional, cell-based; conditions: Homo sapiens
Description: SANGER: Inhibition of human NCI-H1573 cell growth in a cell viability assay.

HT-1376 = assay type: functional, cell-based; conditions: Homo sapiens
Description: SANGER: Inhibition of human HT-1376 cell growth in a cell viability assay.

S-117 = assay type: functional, cell-based; conditions: Homo sapiens
Description: SANGER: Inhibition of human S-117 cell growth in a cell viability assay.

NCI-H596 = assay type: functional, cell-based; conditions: Homo sapiens
Description: SANGER: Inhibition of human NCI-H596 cell growth in a cell viability assay.

HCC1419 = assay type: functional, cell-based; conditions: Homo sapiens
Description: SANGER: Inhibition of human HCC1419 cell growth in a cell viability assay.

SCC-25 = assay type: functional, cell-based; conditions: Homo sapiens
Description: SANGER: Inhibition of human SCC-25 cell growth in a cell viability assay.

UACC-62 = assay type: functional, cell-based; conditions: Homo sapiens
Description: SANGER: Inhibition of human UACC-62 cell growth in a cell viability assay.

PFSK-1 = assay type: functional, cell-based; conditions: Homo sapiens
Description: SANGER: Inhibition of human PFSK-1 cell growth in a cell viability assay.

SK-MEL-24 = assay type: functional, cell-based; conditions: Homo sapiens
Description: SANGER: Inhibition of human SK-MEL-24 cell growth in a cell viability assay.

RD = assay type: functional, cell-based; conditions: Homo sapiens
Description: SANGER: Inhibition of human RD cell growth in a cell viability assay.

IGROV-1 = assay type: functional, cell-based; conditions: Homo sapiens
Description: SANGER: Inhibition of human IGROV-1 cell growth in a cell viability assay.

OVCAR-5 = assay type: functional, cell-based; conditions: Homo sapiens
Description: SANGER: Inhibition of human OVCAR-5 cell growth in a cell viability assay.

SF-295 = assay type: functional, cell-based; conditions: Homo sapiens
Description: SANGER: Inhibition of human SF295 cell growth in a cell viability assay.

## O=C1NC(=O)c2c1c(-c1ccccc1Cl)cc1[nH]c3ccc(O)cc3c21
SJRH30
  IC50: > 2 µM
BT-20
  IC50: > 2 µM
HCC1569
  IC50: > 2 µM
HuO9
  IC50: 1.96 µM
KYSE-70 cell line
  IC50: > 2 µM
CHP-212
  IC50: 0.619 µM
SAS
  IC50: > 2 µM
MDA-MB-361
  IC50: > 2 µM
C-33-A
  IC50: > 2 µM
DK-MG
  IC50: > 2 µM
P12-Ichikawa
  IC50: 0.482 µM
RPMI-7951
  IC50: > 2 µM
PANC-08-13
  IC50: > 2 µM
NB14
  IC50: > 2 µM
YKG-1
  IC50: > 2 µM
PA-1
  IC50: > 2 µM
SCC-9
  IC50: > 2 µM
FaDu
  IC50: > 2 µM
CHL-1
  IC50: 1.05 µM
KYSE-520 cell line
  IC50: > 2 µM
SAOS-2
  IC50: > 2 µM
D-336MG
  IC50: > 2 µM
Huh-7
  IC50: > 2 µM
GAMG
  IC50: > 2 µM
HEC-1
  IC50: > 2 µM
NCI-H630
  IC50: 1.93 µM
CAKI-1
  IC50: > 2 µM
NCI-H1792
  IC50: > 2 µM
MDA-MB-231
  IC50: > 2 µM
BFTC-909
  IC50: > 2 µM
HCC38
  IC50: > 2 µM
CAL-120
  IC50: > 2 µM
NCI-H1573
  IC50: > 2 µM
HT-1376
  IC50: > 2 µM
S-117
  IC50: > 2 µM
NCI-H596
  IC50: > 2 µM
HCC1419
  IC50: > 2 µM
SCC-25
  IC50: > 2 µM
UACC-62
  IC50: > 2 µM
PFSK-1
  IC50: > 2 µM
SK-MEL-24
  IC50: > 2 µM
RD
  IC50: > 2 µM
IGROV-1
  IC50: > 2 µM

## NC1(c2ccc(-c3nc4ccn5c(=O)[nH]nc5c4cc3-c3ccccc3)cc2)CCC1 [MK-2206]
SJRH30
  IC50: 3.69 µM
BT-20
  IC50: > 4 µM
HCC1569
  IC50: > 4 µM
HuO9
  IC50: 0.928 µM
KYSE-70 cell line
  IC50: > 4 µM
CHP-212
  IC50: > 4 µM
OVCAR-5
  IC50: > 4 µM
SAS
  IC50: > 4 µM
MDA-MB-361
  IC50: 0.578 µM
C-33-A
  IC50: > 4 µM
DK-MG
  IC50: > 4 µM
P12-Ichikawa
  IC50: 0.116 µM
RPMI-7951
  IC50: > 4 µM
PANC-08-13
  IC50: > 4 µM
NB14
  IC50: > 4 µM
YKG-1
  IC50: > 4 µM
PA-1
  IC50: 1.35 µM
SCC-9
  IC50: > 4 µM
FaDu
  IC50: > 4 µM
CHL-1
  IC50: > 4 µM
SF-295
  IC50: > 4 µM
KYSE-520 cell line
  IC50: > 4 µM
SAOS-2
  IC50: > 4 µM
Huh-7
  IC50: 3.09 µM
GAMG
  IC50: 2.24 µM
HEC-1
  IC50: > 4 µM
NCI-H630
  IC50: > 4 µM
CAKI-1
  IC50: > 4 µM
NCI-H1792
  IC50: > 4 µM
MDA-MB-231
  IC50: > 4 µM
BFTC-909
  IC50: > 4 µM
HCC38
  IC50: > 4 µM
CAL-120
  IC50: > 4 µM
NCI-H1573
  IC50: > 4 µM
HT-1376
  IC50: > 4 µM
S-117
  IC50: > 4 µM
NCI-H596
  IC50: > 4 µM
HCC1419
  IC50: 0.489 µM
SCC-25
  IC50: > 4 µM
UACC-62
  IC50: > 4 µM
PFSK-1
  IC50: > 4 µM
RD
  IC50: > 4 µM
IGROV-1
  IC50: 0.552 µM

## CS(=O)(=O)N1CCN(Cc2cc3nc(-c4cccc5[nH]ncc45)nc(N4CCOCC4)c3s2)CC1 [PICTILISIB]
SJRH30
  IC50: > 4 µM
BT-20
  IC50: 1.69 µM
HCC1569
  IC50: > 4 µM
HuO9
  IC50: 0.206 µM
KYSE-70 cell line
  IC50: > 4 µM
CHP-212
  IC50: 2.18 µM
OVCAR-5
  IC50: 0.94 µM
SAS
  IC50: > 4 µM
MDA-MB-361
  IC50: 0.439 µM
C-33-A
  IC50: > 4 µM
DK-MG
  IC50: > 4 µM
P12-Ichikawa
  IC50: > 4 µM
RPMI-7951
  IC50: > 4 µM
PANC-08-13
  IC50: > 4 µM
NB14
  IC50: > 4 µM
YKG-1
  IC50: 3.04 µM
PA-1
  IC50: 0.532 µM
SCC-9
  IC50: > 4 µM
FaDu
  IC50: > 4 µM
CHL-1
  IC50: 0.379 µM
SF-295
  IC50: 2.32 µM
KYSE-520 cell line
  IC50: > 4 µM
SAOS-2
  IC50: 1.33 µM
Huh-7
  IC50: 1.21 µM
GAMG
  IC50: 0.371 µM
HEC-1
  IC50: > 4 µM
NCI-H630
  IC50: > 4 µM
CAKI-1
  IC50: > 4 µM
NCI-H1792
  IC50: > 4 µM
MDA-MB-231
  IC50: > 4 µM
BFTC-909
  IC50: 1.43 µM
HCC38
  IC50: > 4 µM
CAL-120
  IC50: > 4 µM
NCI-H1573
  IC50: > 4 µM
HT-1376
  IC50: > 4 µM
S-117
  IC50: > 4 µM
NCI-H596
  IC50: > 4 µM
HCC1419
  IC50: 2.21 µM
SCC-25
  IC50: 0.914 µM
UACC-62
  IC50: > 4 µM
PFSK-1
  IC50: 1.94 µM
SK-MEL-24
  IC50: > 4 µM
RD
  IC50: > 4 µM
IGROV-1
  IC50: 0.634 µM

## CN(C)CCOc1ccc(-c2nc(-c3ccncc3)c(-c3ccc4c(c3)CC/C4=N\O)[nH]2)cc1 [SB590885]
SJRH30
  IC50: > 5 µM
BT-20
  IC50: > 5 µM
HCC1569
  IC50: > 5 µM
HuO9
  IC50: > 5 µM
KYSE-70 cell line
  IC50: > 5 µM
CHP-212
  IC50: > 5 µM
OVCAR-5
  IC50: > 5 µM
SAS
  IC50: > 5 µM
MDA-MB-361
  IC50: > 5 µM
C-33-A
  IC50: > 5 µM
DK-MG
  IC50: > 5 µM
P12-Ichikawa
  IC50: 3.44 µM
RPMI-7951
  IC50: > 5 µM
PANC-08-13
  IC50: > 5 µM
NB14
  IC50: > 5 µM
YKG-1
  IC50: > 5 µM
PA-1
  IC50: > 5 µM
SCC-9
  IC50: > 5 µM
FaDu
  IC50: > 5 µM
CHL-1
  IC50: > 5 µM
SF-295
  IC50: > 5 µM
KYSE-520 cell line
  IC50: > 5 µM
SAOS-2
  IC50: > 5 µM
Huh-7
  IC50: 3.67 µM
GAMG
  IC50: > 5 µM
HEC-1
  IC50: > 5 µM
NCI-H630
  IC50: > 5 µM
CAKI-1
  IC50: > 5 µM
NCI-H1792
  IC50: > 5 µM
MDA-MB-231
  IC50: > 5 µM
BFTC-909
  IC50: > 5 µM
HCC38
  IC50: > 5 µM
CAL-120
  IC50: > 5 µM
NCI-H1573
  IC50: > 5 µM
HT-1376
  IC50: > 5 µM
S-117
  IC50: > 5 µM
NCI-H596
  IC50: > 5 µM
HCC1419
  IC50: > 5 µM
SCC-25
  IC50: > 5 µM
UACC-62
  IC50: > 5 µM
PFSK-1
  IC50: > 5 µM
RD
  IC50: > 5 µM
IGROV-1
  IC50: > 5 µM
